Test results reported in patent US20250289809A1, “COMPOUNDS USEFUL FOR GOUT” (ATOM BIOSCIENCE AMERICA CORPORATION, priority 2022, published 2025).

Experiments:
[1] = test system: potassium oxonate -induced hyperuricemic rats; experiment: Serum uric acid level in potassium oxonate-induced hyperuricemic rats after 3-day administration; format: in vivo, Sprague Dawley (SD) rats; settings: for Uric acid: serum, mean ± SD, n=6; for Effect on serum uric acid level after modeling, compared with the model group at the same time point: 2 mg/kg gavage, hyperuricemic rats, result in words
Description: Compound 30 and 32 were light yellow powders and triturated with 0.5% CMC-Na just prior to use to prepare suspensions having a corresponding concentration for gavage.
Febuxostat, purchased from Sigma, was triturated with 0.5% CMC-Na just prior to use to prepare a suspension having a corresponding concentration for gavage.
Sprague Dawley (SD) rats, SPF grade, 30, male, weighing 230-250 g, purchased from Shanghai SLAC Laboratory Animal Co., Ltd., permission number: SCXK (hu) 2022-0004, quality certification number: 20220004017238.
Uric acid assay kit (phosphotungstic acid reduction method), batch number: 20230224, purchased from NanJing Jiancheng Bioengineering Institute; Potassium oxonate, article number: 00164, batch number: T6GKM-TA, purchased from Tokyo Chemical Industry Co., Ltd., Japan (TCI); carboxymethyl cellulose sodium (CMC-Na), batch number: 20170810, chemically pure, purchased from Sinopharm chemical reagent Co., Ltd.
30 male SD rats weighed approximately 220-240 g after one week of adaptation. They were randomly divided into 5 groups according to the body weight, with 6 rats in each group, namely: (1) normal group (0.5% CMC-Na), (2) model group (0.5% CMC-Na), (3) Febuxostat, 2 mg/kg, (4) compound 30, 2 mg/kg and (5) compound 32, 2 mg/kg. The drugs in each group were prepared into a corresponding concentration suspension, and the administration volume was 0.5 mL/100 g.
After the rats in each group were purchased and adapted to feeding, they were fasted for 12 h, and intraperitoneally injected with potassium oxonate at a dose of 300 mg/kg to establish a model. 0.5 h after modeling, each test drug group was subjected to gavage administration once. The drug was administered continuously for 3 days. On day 3, blood samples were collected from the retro-orbital venous plexus before and 1, 3 and 5 h after injection of potassium oxonate. The samples were centrifuged at 3500 rpm for 10 min, and 30 μL of serum was collected to measure the uric acid level at each time point.
The measurement data of each test were expressed as (mean)±(standard deviation). The comparison between groups used ANOVA-Dunnett T test to examine the significance. P<0.05 was used as the significance index, and P<0.01 was used as the extremely significant index.

[2] = In vivo pharmacokinetic experiments in SD rats (oral and intravenous); settings: male, Sprague-Dawley (SD), rat, plasma
Experimental: Preparation of compound stock solution: An appropriate amount of compound solid powder was be weighed and added in a certain amount of DMSO, and vortex ultrasound to obtain a 10 mg/mL stock solution.
(§1) Preparation of test compound for gavage: respectively taking an appropriate amount of the compound stock solution, adding a certain amount of Solutol HS15 solution, vortexing for 1 minute, then adding a certain amount of physiological saline, and fully mixing to obtain a 1 mg/mL solution.
as §1, with “for intravenous injection:” for “for gavage:”, “mixing until uniform, so as” for “mixing”, “a 0.5” for “a 1”
SD rats, male, SPF grade, 6-8 weeks old, purchased from JH Laboratory Animal Co. LTD. Permission number: SCXK (SH) 2022-0009, certification number: 20220009004139.
The experimental animals were fasted overnight before gavage administration, and were given food 4 hours after administration, with free access to water. Each test compound was divided into two groups, namely, intravenous administration group and oral administration group.
Blood samples (150 μL/sample) were collected from the jugular vein of SD rats before administration and at 5 min (only intravenous administration group), 15 min, 30 min, 1 h, 2 h, 4 h, 8 h and 24 h after administration, respectively. The samples were placed in centrifuge tubes containing anticoagulant sodium heparin and centrifuged at 4° C., 2000 g for 5 minutes to separate plasma. The plasma samples were analyzed by LC/MS/MS to detect the concentration of each test compound.
Non-compartmental model-related parameters were calculated by WinNonlin® Professional software.

[3] = 0 h (before potassium oxonate injection on day 3), 2 mg/kg gavage once daily for 3 days
[4] = 1 h after potassium oxonate 300 mg/kg i.p. on day 3, 2 mg/kg gavage for 3 days
[5] = 3 h after potassium oxonate 300 mg/kg i.p. on day 3, 2 mg/kg gavage for 3 days
[6] = 5 h after potassium oxonate 300 mg/kg i.p. on day 3, 2 mg/kg gavage for 3 days
[7] = Intravenous injection administration - 1 mg/kg
[8] = po, Gavage administration - 10 mg/kg

AUC(0-inf) [2, 7]	Cmax [2, 7]	MRT inf [2, 7]	Tmax [2, 7]	half-life [2, 7]	AUC(0-inf) [2, 8]	Cmax [2, 8]	MRT inf [2, 8]	Tmax [2, 8]	half-life [2, 8]	SMILES	Uric acid [1, 3]	Effect on serum uric acid level after modeling, compared with the model group at the same time point [1]	Uric acid [1, 4]	Uric acid [1, 5]	Uric acid [1, 6]
										CC(C)n1cc(C#N)c2cc(-n3cc(C(=O)OCCCCO[N+](=O)[O-])cn3)ccc21 [compound 30, [4-(nitrooxy)]butyl 1-(3-cyano-1-isopropyl-1H-indol-5-yl)-1H-pyrazole-4-carboxylate]	45.0 ± 8.4 µmol/L	significantly reduce	70.0 ± 14.8 µmol/L	94.2 ± 22.7 µmol/L	72.2 ± 11.4 µmol/L
1100 ng·h/mL	1860 ng/mL	3.69 h	0.083 h	7.72 h	12400 ng·h/mL	4670 ng/mL	4.22 h	0.25 h	3.44 h	CCOC(=O)OC(C)OC(=O)c1cnn(-c2ccc3c(c2)c(C#N)cn3C(C)C)c1 (stereo not shown) [compound 11, {1-[(ethoxycarbonyl)oxy]}ethyl 1-(3-cyano-1-isopropyl-1H-indol-5-yl)-1H-pyrazole-4-carboxylate]					
										Cc1nc(-c2ccc(OCC(C)C)c(C#N)c2)sc1C(=O)O [Febuxostat, reference compound]	39.2 ± 6.2 µmol/L	significantly reduce	34.4 ± 7.1 µmol/L	31.2 ± 7.6 µmol/L	24.7 ± 4.7 µmol/L
										CC(C)n1cc(C#N)c2cc(-n3cc(C(=O)Oc4cccc(CO[N+](=O)[O-])c4)cn3)ccc21 [compound 32, phenyl [3-(nitrooxy)methyl] 1-(3-cyano-1-isopropyl-1H-indol-5-yl)-1H-pyrazole-4-carboxylate]	49.1 ± 6.7 µmol/L	significantly reduce	68.9 ± 15.8 µmol/L	82.2 ± 23.3 µmol/L	65.8 ± 13.6 µmol/L
